# Experimental data as given in ChEMBL document CHEMBL5550090, “Synthesis and biological evaluation of 1H-pyrrolo[3,2-g]isoquinolines” (Bioorg Med Chem, 2024).
# Experiments:
# [1] = molecular target: T1, Serine/threonine-protein kinase haspin (Homo sapiens, UniProt Q8TF76); test: Inhibition of recombinant human Haspin kinase domain (470 to 798 residues) expressed in bacteria using histone H3 (1 to 21) peptide as substrate incubated for 30 mins in presence of ATP by ADP-Glo kinase assay
# T1 sequence (Q8TF76 whole entry): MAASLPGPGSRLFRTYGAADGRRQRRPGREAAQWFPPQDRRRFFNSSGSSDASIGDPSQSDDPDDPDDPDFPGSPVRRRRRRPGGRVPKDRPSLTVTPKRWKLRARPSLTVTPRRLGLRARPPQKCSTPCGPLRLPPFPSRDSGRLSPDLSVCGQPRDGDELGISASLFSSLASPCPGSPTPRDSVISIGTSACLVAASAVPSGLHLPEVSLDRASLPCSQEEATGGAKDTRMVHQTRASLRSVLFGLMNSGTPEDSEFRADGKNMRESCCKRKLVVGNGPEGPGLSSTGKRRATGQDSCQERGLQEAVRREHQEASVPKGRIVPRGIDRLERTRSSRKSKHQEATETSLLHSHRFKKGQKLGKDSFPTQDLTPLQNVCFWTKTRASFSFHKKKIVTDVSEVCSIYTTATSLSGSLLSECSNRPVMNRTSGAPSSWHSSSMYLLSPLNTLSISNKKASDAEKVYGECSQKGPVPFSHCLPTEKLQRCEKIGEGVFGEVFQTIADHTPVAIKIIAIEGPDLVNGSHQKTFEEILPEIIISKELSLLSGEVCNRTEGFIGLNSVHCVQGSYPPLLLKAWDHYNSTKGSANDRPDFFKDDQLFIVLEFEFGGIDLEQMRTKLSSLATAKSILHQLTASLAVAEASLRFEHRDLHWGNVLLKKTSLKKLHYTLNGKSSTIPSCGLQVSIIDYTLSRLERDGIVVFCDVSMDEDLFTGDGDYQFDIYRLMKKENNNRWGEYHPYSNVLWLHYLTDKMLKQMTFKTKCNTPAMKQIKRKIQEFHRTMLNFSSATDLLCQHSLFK
# [2] = molecular target: Dual specificity protein kinase CLK1 (Mus musculus) (UniProt P22518); test: Inhibition of recombinant mouse CLK1 expressed in bacteria assessed as enzyme residual activity using GRSRSRSRSRSR as substrate at 10 uM incubated for 30 mins in presence of ATP by ADP-Glo kinase assay
# Chain of Dual specificity protein kinase CLK1 (Mus musculus) (P22518 whole entry, looked up): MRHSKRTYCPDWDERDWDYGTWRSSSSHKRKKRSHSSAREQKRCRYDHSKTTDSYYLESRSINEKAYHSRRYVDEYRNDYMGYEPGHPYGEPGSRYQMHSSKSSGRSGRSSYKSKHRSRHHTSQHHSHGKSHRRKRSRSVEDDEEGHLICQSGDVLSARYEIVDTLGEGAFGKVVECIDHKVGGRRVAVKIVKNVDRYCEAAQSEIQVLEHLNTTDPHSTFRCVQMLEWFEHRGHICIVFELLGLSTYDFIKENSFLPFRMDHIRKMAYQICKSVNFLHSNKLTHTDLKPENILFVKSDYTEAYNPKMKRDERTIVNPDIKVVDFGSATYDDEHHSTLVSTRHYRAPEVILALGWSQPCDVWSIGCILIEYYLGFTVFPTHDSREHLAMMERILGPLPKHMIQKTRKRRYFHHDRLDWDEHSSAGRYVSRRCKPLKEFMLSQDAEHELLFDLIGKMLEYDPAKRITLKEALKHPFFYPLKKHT
# [3] = molecular target: Dual specificity protein kinase CLK1 (Mus musculus) (UniProt P22518); test: Inhibition of recombinant mouse CLK1 expressed in bacteria assessed as enzyme residual activity using GRSRSRSRSRSR as substrate at 1 uM incubated for 30 mins in presence of ATP by ADP-Glo kinase assay
# [4] = molecular target: Dual specificity protein kinase CLK1 (Mus musculus, UniProt P22518); test: Inhibition of recombinant mouse CLK1 expressed in bacteria using GRSRSRSRSRSR as substrate incubated for 30 mins in presence of ATP by ADP-Glo kinase assay
# Chain of Dual specificity protein kinase CLK1 (P22518 whole entry, the tested form may be a part): as the sequence (P22518 whole entry, looked up) above
# [5] = molecular target: Dual specificity tyrosine-phosphorylation-regulated kinase 1A (Rattus norvegicus) (UniProt Q63470); test: Inhibition of recombinant rat DYRK1A kinase domain (1 to 499 residues) expressed in bacteria assessed as enzyme residual activity using KKISGRLSPIMTEQ as substrate at 10 uM incubated for 30 mins in presence of ATP by ADP-Glo kinase assay
# [6] = molecular target: Dual specificity tyrosine-phosphorylation-regulated kinase 1A (Rattus norvegicus) (UniProt Q63470); test: Inhibition of recombinant rat DYRK1A kinase domain (1 to 499 residues) expressed in bacteria assessed as enzyme residual activity using KKISGRLSPIMTEQ as substrate at 1 uM incubated for 30 mins in presence of ATP by ADP-Glo kinase assay
# [7] = molecular target: Dual specificity tyrosine-phosphorylation-regulated kinase 1A (Rattus norvegicus, UniProt Q63470); test: Inhibition of recombinant rat DYRK1A kinase domain (1 to 499 residues) expressed in bacteria using KKISGRLSPIMTEQ as substrate incubated for 30 mins in presence of ATP by ADP-Glo kinase assay
# [8] = molecular target: T2, CDK9/cyclin T1 (Homo sapiens) (UniProt O60563+P50750); test: Inhibition of human recombinant CDK9/cyclin T expressed in baculovirus-infected Sf9 cells assessed as enzyme residual activity using YSPTSPSYSPTSPSYSPTSPSKKKK as substrate at 10 uM incubated for 30 mins in presence of ATP by ADP-Glo kinase assay
# [9] = molecular target: T2, CDK9/cyclin T1 (Homo sapiens); test: Inhibition of human recombinant CDK9/cyclin T expressed in baculovirus-infected Sf9 cells assessed as enzyme residual activity using YSPTSPSYSPTSPSYSPTSPSKKKK as substrate at 1 uM incubated for 30 mins in presence of ATP by ADP-Glo kinase assay
# [10] = molecular target: Glycogen synthase kinase-3 beta (Homo sapiens) (UniProt P49841); test: Inhibition of human recombinant GSK-3 beta expressed in baculovirus-infected Sf9 cells assessed as enzyme residual activity using YRRAAVPPSPSLSRHSSPHQSpEDEEE as substrate at 10 uM incubated for 30 mins in presence of ATP by ADP-Glo kinase assay
# Chain of Glycogen synthase kinase-3 beta (Homo sapiens) (P49841 whole entry, looked up, canonical isoform): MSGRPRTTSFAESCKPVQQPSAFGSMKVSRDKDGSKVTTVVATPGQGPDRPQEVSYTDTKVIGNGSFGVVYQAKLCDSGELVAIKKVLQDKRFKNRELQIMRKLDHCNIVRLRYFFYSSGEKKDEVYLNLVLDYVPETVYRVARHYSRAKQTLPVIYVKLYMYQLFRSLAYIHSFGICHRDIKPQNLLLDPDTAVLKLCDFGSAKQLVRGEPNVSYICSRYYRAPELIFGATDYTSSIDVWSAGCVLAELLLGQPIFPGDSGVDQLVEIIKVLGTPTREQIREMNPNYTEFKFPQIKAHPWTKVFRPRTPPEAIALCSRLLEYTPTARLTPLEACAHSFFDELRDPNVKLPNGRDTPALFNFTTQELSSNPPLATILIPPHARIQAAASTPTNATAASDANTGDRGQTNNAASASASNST
# [11] = molecular target: Glycogen synthase kinase-3 beta (Homo sapiens) (UniProt P49841); test: Inhibition of human recombinant GSK-3 beta expressed in baculovirus-infected Sf9 cells assessed as enzyme residual activity using YRRAAVPPSPSLSRHSSPHQSpEDEEE as substrate at 1 uM incubated for 30 mins in presence of ATP by ADP-Glo kinase assay
# [12] = molecular target: Casein kinase I isoform epsilon (Homo sapiens) (UniProt P49674); test: Inhibition of human recombinant CK1 epsilon expressed in baculovirus-infected Sf9 cells assessed as enzyme residual activity using RRKHAAIGSpAYSITA as substrate at 10 uM incubated for 30 mins in presence of ATP by ADP-Glo kinase assay
# Chain of Casein kinase I isoform epsilon (Homo sapiens) (P49674 whole entry, looked up, canonical isoform): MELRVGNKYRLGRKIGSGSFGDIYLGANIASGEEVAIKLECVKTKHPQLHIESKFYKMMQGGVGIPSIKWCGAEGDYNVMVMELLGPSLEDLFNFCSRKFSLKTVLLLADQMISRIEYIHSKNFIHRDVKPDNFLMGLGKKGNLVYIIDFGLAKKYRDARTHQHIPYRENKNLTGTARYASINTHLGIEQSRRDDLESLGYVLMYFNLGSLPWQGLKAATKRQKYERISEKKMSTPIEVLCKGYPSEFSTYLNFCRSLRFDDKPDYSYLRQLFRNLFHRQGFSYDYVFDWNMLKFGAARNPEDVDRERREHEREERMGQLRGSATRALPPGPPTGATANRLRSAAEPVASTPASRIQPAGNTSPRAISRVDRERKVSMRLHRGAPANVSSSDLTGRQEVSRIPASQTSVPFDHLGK
# [13] = molecular target: Casein kinase I isoform epsilon (Homo sapiens) (UniProt P49674); test: Inhibition of human recombinant CK1 epsilon expressed in baculovirus-infected Sf9 cells assessed as enzyme residual activity using RRKHAAIGSpAYSITA as substrate at 1 uM incubated for 30 mins in presence of ATP by ADP-Glo kinase assay
# [14] = molecular target: T3, Cyclin-dependent kinase 5/CDK5 activator 1 (Homo sapiens) (UniProt Q00535+Q15078); test: Inhibition of human recombinant CDK5/p25 expressed in bacteria assessed as enzyme residual activity using histone H1 as substrate at 10 uM incubated for 30 mins in presence of ATP by ADP-Glo kinase assay
# T3 sequence (Q00535 whole entry): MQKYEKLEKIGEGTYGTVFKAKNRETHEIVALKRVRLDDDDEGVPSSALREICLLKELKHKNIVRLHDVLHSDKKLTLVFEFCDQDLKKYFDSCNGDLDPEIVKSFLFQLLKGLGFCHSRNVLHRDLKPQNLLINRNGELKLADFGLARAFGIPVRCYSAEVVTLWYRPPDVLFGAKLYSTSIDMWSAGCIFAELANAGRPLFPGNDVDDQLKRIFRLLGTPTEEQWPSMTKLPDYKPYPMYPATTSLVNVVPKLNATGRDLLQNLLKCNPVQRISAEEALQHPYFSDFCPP
# T3 sequence (Q15078 99-307 partner limits assumed): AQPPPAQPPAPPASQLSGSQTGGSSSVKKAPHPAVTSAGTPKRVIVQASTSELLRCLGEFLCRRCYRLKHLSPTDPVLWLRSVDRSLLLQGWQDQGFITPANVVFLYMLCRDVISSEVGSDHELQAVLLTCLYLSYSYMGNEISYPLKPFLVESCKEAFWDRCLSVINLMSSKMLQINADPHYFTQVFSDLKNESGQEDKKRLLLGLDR
# [15] = molecular target: T3, Cyclin-dependent kinase 5/CDK5 activator 1 (Homo sapiens); test: Inhibition of human recombinant CDK5/p25 expressed in bacteria assessed as enzyme residual activity using histone H1 as substrate at 1 uM incubated for 30 mins in presence of ATP by ADP-Glo kinase assay
# [16] = molecular target: T4, Serine/threonine-protein kinase pim-1 (Homo sapiens, UniProt P11309); test: Inhibition of human recombinant PIM-1 expressed in bacteria assessed as enzyme residual activity using histone H1 as substrate at 10 uM incubated for 30 mins in presence of ATP by ADP-Glo kinase assay
# Target sequence in this assay (P11309 whole entry, looked up): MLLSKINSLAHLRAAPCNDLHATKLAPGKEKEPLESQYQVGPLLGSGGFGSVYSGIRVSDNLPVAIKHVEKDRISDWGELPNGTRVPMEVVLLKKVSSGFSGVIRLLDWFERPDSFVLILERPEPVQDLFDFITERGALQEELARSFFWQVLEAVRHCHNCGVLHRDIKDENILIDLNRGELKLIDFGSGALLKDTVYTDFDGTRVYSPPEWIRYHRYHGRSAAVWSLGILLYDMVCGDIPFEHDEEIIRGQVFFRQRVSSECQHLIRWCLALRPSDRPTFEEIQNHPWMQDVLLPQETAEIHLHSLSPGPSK
# [17] = molecular target: T4, Serine/threonine-protein kinase pim-1; test: Inhibition of human recombinant PIM-1 expressed in bacteria assessed as enzyme residual activity using histone H1 as substrate at 1 uM incubated for 30 mins in presence of ATP by ADP-Glo kinase assay
# Target sequence in this assay (P11309 whole entry, looked up): as above
# [18] = Selectivity index, ratio of IC50 for recombinant mouse CLK1 expressed in bacteria to IC50 for recombinant human Haspin kinase domain (470 to 798 residues) expressed in bacteria
# [19] = molecular target: CDK9/cyclin T1 (Homo sapiens, UniProt P50750); test: Inhibition of human recombinant CDK9/cyclin T expressed in baculovirus-infected Sf9 cells using YSPTSPSYSPTSPSYSPTSPSKKKK as substrate incubated for 30 mins in presence of ATP by ADP-Glo kinase assay
# Chain of CDK9/cyclin T1 (O60563 whole entry): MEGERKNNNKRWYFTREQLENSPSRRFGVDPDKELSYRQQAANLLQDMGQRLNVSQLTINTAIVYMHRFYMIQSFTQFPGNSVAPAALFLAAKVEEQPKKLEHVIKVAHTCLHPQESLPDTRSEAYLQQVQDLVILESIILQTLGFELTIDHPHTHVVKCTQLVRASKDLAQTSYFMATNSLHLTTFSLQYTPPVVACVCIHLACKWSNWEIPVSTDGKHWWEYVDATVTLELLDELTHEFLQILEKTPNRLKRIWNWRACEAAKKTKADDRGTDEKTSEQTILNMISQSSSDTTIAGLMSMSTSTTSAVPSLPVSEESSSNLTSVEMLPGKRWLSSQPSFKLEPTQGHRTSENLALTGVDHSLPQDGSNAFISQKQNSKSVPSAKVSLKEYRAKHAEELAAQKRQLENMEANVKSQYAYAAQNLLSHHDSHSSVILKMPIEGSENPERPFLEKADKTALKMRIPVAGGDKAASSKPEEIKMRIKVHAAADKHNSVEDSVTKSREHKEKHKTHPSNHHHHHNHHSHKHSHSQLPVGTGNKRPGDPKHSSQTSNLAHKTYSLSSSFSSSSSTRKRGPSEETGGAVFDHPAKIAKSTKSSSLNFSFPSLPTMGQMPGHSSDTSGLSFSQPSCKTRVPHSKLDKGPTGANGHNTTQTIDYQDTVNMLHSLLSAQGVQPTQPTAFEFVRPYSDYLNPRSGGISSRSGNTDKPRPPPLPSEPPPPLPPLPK
# Chain of CDK9/cyclin T1 (P50750 whole entry): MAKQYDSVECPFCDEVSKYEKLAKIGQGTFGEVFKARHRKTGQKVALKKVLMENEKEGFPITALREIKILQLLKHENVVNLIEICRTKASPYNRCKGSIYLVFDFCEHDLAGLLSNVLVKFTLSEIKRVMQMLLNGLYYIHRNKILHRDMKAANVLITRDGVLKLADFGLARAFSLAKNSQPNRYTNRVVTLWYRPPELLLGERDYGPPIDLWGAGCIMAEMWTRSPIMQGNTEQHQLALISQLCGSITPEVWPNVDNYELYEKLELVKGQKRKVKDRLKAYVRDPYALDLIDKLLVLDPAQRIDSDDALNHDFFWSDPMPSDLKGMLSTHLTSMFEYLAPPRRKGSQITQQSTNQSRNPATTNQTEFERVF
# [20] = molecular target: T4, Serine/threonine-protein kinase pim-1; test: Inhibition of human recombinant PIM-1 expressed in bacteria using histone H1 as substrate incubated for 30 mins in presence of ATP by ADP-Glo kinase assay
# Target sequence in this assay (P11309 whole entry): as the sequence (P11309 whole entry, looked up) above
# [21] = tested on: TERT-RPE1; test: cells; settings: Homo sapiens, RPE-1, 48 h
# Description: Cytotoxicity against human TERT-RPE1 cells assessed as reduction in cell viability incubated for 48 hrs by MTS assay
# [22] = tested on: HBL-100; test: cells; settings: Homo sapiens, HBL-100, 48 h
# Description: Antiproliferative activity against human HBL-100 cells assessed as reduction in cell viability incubated for 48 hrs by MTS assay
# [23] = tested on: HCT-116; test: cells; settings: Homo sapiens, HCT-116, 48 h
# Description: Antiproliferative activity against human HCT-116 cells assessed as reduction in cell viability incubated for 48 hrs by MTS assay
# [24] = tested on: SH-SY5Y; test: cells; settings: Homo sapiens, 48 h
# Description: Antiproliferative activity against human SH-SY5Y cells assessed as reduction in cell viability incubated for 48 hrs by MTS assay
# [25] = tested on: U2OS; test: cells; settings: Homo sapiens, 48 h
# Description: Antiproliferative activity against human U2OS cells assessed as reduction in cell viability incubated for 48 hrs by MTS assay
# [26] = species: Homo sapiens; test: Selectivity index, ratio of IC50 for human recombinant CDK9/cyclin T expressed in baculovirus-infected Sf9 cells to IC50 for recombinant human Haspin kinase domain (470 to 798 residues) expressed in bacteria
SMILES,IC50 [1] [µM],Activity [2] [%],Activity [3] [%],IC50 [4] [µM],Activity [5] [%],Activity [6] [%],IC50 [7] [µM],Activity [8] [%],Activity [9] [%],Activity [10] [%],Activity [11] [%],Activity [12] [%],Activity [13] [%],Activity [14] [%],Activity [15] [%],Activity [16] [%],Activity [17] [%],Ratio IC50 [18],IC50 [19] [µM],IC50 [20] [µM],other results
CC(=O)c1c[nH]c2cc3cnccc3cc12,0.157,10,21,0.265,0,25,0.86,20,34,27,69,62,98,13,31,27,80,1.7,,,
ON=Cc1c[nH]c2cc3cnccc3cc12,0.13,,15,0.139,1,9,0.29,2,13,27,80,46,89,32,51,11,43,1.1,0.222,,
Brc1c[nH]c2cc3cnccc3cc12,0.15,32,72,,11,36,0.916,27,39,62,89,77,100,48,100,24,48,,0.999,0.804,EC50 [21]: > 50 µM; EC50 [22]: > 50 µM; EC50 [23]: > 50 µM; EC50 [24]: > 50 µM; EC50 [25]: > 50 µM
N#Cc1c[nH]c2cc3cnccc3cc12,0.075,0,19,0.36,5,38,0.182,6,34,26,59,47,92,34,69,95,100,,0.178,,Ratio IC50 [26]: 2.4
Nc1nccc(-c2c[nH]c3cc4cnccc4cc23)n1,0.122,5,16,0.205,0,25,0.56,16,56,35,76,10,46,21,79,4,20,1.7,,0.225,
Ic1c[nH]c2cc3cnccc3cc12,0.114,27,69,,16,50,0.564,35,62,74,77,27,69,100,,23,50,,,0.675,EC50 [21]: > 50 µM; EC50 [22]: > 50 µM; EC50 [23]: > 50 µM; EC50 [24]: > 50 µM; EC50 [25]: > 50 µM
O=Cc1c[nH]c2cc3cnccc3cc12,0.158,26,53,0.182,7,21,0.495,7,7,23,55,34,80,57,84,33,64,,0.151,,Ratio IC50 [26]: 0.96
